Reference: patent US5684151A, “1-arylsulphonyl, arylcarbonyl and 1-arylphosphonyl-3-phenyl-1,4,5,6-tetrahydropyridazines” (priority 1995, dated 1997)
Read-outs that look alike come from different tables or passages of the source.

Experiments:
[1] = biological target: T1, progestin receptor from rabbit uterus (Oryctolagus cuniculus, UniProt P06186); experiment: Progestin receptor binding (3H-R5020 displacement); conditions: rabbit uterine cytosol, 4° C., 18 h, read-out: IC50: Binding affinity for the progestin receptor from rabbit uterus
T1 construct: Cytosolic progestin receptor were obtained by mixing rabbit uterine tissue with a Tris buffer; from tissue; host or cells: rabbit uterus cytosol
Procedure, shortened: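 Displacement of the radioligand 3H-R5020 was measured in cytosol from homogenized rabbit uterus (pH 7.4 Tris/EDTA/DTT/molybdate buffer), with compounds at 5% final DMSO and about 18 h at 4 °C. Charcoal removed free ligand, scintillation counting quantified bound ligand, and IC50 was the concentration displacing half.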

[2] = tested on: rabbit endometrium; experiment: In vivo progestational test (McGinty Test); parameters: species or system rabbit (immature New Zealand White female); key: Active in Clauberg Assay; Active in McGinty Assay; conditions: injection into uterine horn, 72 hours
Procedure: Progestational activity was measured in vivo by the ability to stimulate the rabbit endometrium after injection into the uterine horn.
Immature New Zealand White female rabbits were injected subcutaneously for 6 days with 5.0 μg of 17β-estradiol per day. On the 7th day the rabbits were anesthetized, the abdomen opened and a uterine horn exposed. Two ligatures were placed around a segment of the uterus 3-4 cm long, leaving the major blood vessels outside the ties.
The upper ligature was tied tightly, and the lower one was left loose. A needle attached to a syringe was injected in the uterus below the second ligature and up into the area between the two ligatures. As the test material was injected, the ligature was tightened and held tight so that the needle was withdrawn without the loss of fluid. The second ligature was secured and the abdomen closed.
The rabbits were sacrificed approximately 72 hours after the injection. The uteri were removed, fixed in 10% buffered formalin, sectioned at 6μ, and stained with hematoxylin and eosin. The evaluation for endometrial proliferation was made according to a McPhail Index. Each slide was graded for each rabbit on a 0 (no response)-4 (maximum response) scale.

[3] = tested on: rabbit endometrium; experiment: In vivo progestational test (Clauberg Test); parameters: species or system rabbit (immature New Zealand White female); key: Active in Clauberg Assay; Active in McGinty Assay; conditions: oral or parenteral, daily for five days
Procedure: Progestational activity was also measured in vivo by the abiity to stimulate the rabbit endometrium after either oral or parenteral administration.
[…]. Starting on the 7th day, the rabbits were given the test material daily for five days. The rabbits were sacrificed approximately 24 hours after the last administration, and the uteri were excised, trimmed and weighed. Portions of both uterine horns were fixed in 10% neutral formalin, sectioned at 6μ and stained with hematoxylin and eosin. Progestational activity was assessed as described above for the McGinty Test.

[4] = tested on: Human T47D breast carcinoma cells; experiment: Ex vivo progestational test (T47D proliferation); assay type: cell-based; conditions: SC200, 3H-thymidine incorporation
Procedure: The progestational activity of the compounds was accessed by their ability to stimulate proliferation of human breast carcinoma cells. Proliferation was measured as the ability to stimulate ^3 H-thymidine incorporation into these cells in vitro. Human T47D breast carcinoma cells (American Type Tissue Collection #133-HTB) were maintained in media consisting or RPMI 1640 supplemented with 10% fetal bovine serum, 10 ug/ml insulin, 10 U/ml pennicillin, 100 ug/ml streptomycin, and 2 mM L-glutamine. Monolayer cell cultures were trypsinized and washed in assay media consisting of phenol red-free RPMI 1640 supplemented with 5% charcoal-stripped, fetal bovine serum, and the other ingredients listed above. Cells were then plated in a 96-well plate. After a 48-hour incubation period at 37° C., the conditioned media was removed and replaced with fresh media containing test compounds in DMSO (0.1% DMSO final concentration). The cell cultures were incubated for 18 to 20 hours at 37° C. ^3 H-thymidine was then added to each well and the cell cultures were incubated at 37° C. for an additional 4 hours. Labelling was stopped by addition of un labelled thymidine. The cultures were washed twice, trypsinized and then harvested onto a filter mat. Incorporated ^3 -H-thymidine was measured by liquid scintillation counting. Data was expressed as a percent stimulation above control level which was set at 100%. An SC200 value was calculated as the concentration of test material needed to stimulate ^3 H-thymidine incorporation 200% of control.
Aspects of the application of the procedure used are described in the following: C. Christensen, D. Gunter, D. Saunders and V. Malviya, Gynecol. Oncol., 28, 25 (1987); J. Puzas, R. Drivdahl, G. Howard and D. Baylink, Proc. Soc. Exp. Biol. Med., 166, 113 (1981); and I. Keydar, L. Chen, S. Karby, F. Weiss, J. Delarea, M. Raduy, S. Chaitcik and H. Brenner, Eur. J. Cancer, 15, 659 (1979)

[5] = tested on: mouse (MC3T3-E1) and human (TE-85) osteoblast-line cells; assay type: cell-based
Procedure, shortened: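 Proliferation was read as ^3H-thymidine (0.4 μCi) uptake during a 4 h pulse, which started 20 h after compound addition. Before dosing, cells sat 24 h in 0.1% FBS. Values are % times control (100%).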

[6] = tested on: mature female rabbits; experiment: Additional test to determine bone growth activity (bone density by dual X-ray densitometry); assay type: in vivo, rabbit; conditions: oral once daily, 12 weeks, vs vehicle treated control
Procedure: Test compounds were orally administered once daily to mature female rabbits for 12 weeks. Bone density was measured by dual X-ray densitometry and results were expressed as % base line bone mineral content.

T1 sequence (P06186 whole entry): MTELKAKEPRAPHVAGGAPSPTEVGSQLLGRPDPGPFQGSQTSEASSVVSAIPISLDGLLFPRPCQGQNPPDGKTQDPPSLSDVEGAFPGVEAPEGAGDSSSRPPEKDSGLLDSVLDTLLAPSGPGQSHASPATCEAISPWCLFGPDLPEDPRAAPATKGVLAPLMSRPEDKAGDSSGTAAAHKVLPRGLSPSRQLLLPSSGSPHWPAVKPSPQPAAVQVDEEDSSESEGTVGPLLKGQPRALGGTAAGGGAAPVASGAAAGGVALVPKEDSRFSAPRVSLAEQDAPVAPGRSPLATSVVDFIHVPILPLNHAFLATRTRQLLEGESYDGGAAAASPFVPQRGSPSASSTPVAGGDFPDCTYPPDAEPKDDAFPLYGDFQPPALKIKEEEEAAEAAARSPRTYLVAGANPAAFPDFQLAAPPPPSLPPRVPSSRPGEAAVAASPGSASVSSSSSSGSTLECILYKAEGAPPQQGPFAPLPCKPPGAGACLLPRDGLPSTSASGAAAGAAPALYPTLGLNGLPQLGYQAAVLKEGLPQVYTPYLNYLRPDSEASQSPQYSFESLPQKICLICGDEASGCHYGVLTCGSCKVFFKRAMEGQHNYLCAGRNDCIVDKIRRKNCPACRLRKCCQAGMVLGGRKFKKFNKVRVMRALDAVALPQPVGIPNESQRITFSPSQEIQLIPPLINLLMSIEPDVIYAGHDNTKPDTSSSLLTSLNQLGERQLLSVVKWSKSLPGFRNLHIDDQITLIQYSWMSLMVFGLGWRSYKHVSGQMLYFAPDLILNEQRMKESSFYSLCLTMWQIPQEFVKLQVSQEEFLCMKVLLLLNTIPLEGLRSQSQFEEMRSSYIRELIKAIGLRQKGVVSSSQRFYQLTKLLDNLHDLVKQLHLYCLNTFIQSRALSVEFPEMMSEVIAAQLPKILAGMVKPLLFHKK

| SMILES | IC50 [1] [nM] | In-vivo: Active in McGinty Assay [2] | In-vivo: Active in Clauberg Assay [3] | T47D: Concentration to elicit a 200% increase in T47D Human breast cell proliferation [4] | Osteoblast Cell Proliferation, 3H-thymidine incorporation vs control (100%) ([5]; 10^-6) [%] | Osteoblast Cell Proliferation, 3H-thymidine incorporation vs control (100%) ([5]; 10^-7) [%] | Osteoblast Cell Proliferation, 3H-thymidine incorporation vs control (100%) ([5]; 10^-8) [%] | Osteoblast Cell Proliferation, 3H-thymidine incorporation vs control (100%) ([5]; 10^-9) [%] | Osteoblast Cell Proliferation, 3H-thymidine incorporation vs control (100%) ([5]; 10^-10) [%] | bone mineral content [6] |
| --- | --- | --- | --- | --- | --- | --- | --- | --- | --- | --- |
| O=S(=O)(c1ccc(I)cc1)N1CCCC(c2ccc(Cl)c(C(F)(F)F)c2)=N1 [Compound 1, 3-(4-Chloro-3-trifluoromethylphenyl)-1-(4-iodobenzenesulfonyl)-1,4,5,6-tetrahydropyridazine] | 1.33 | M | C | 46 |  |  |  |  |  |  |
| O=S(=O)(c1ccc(Cl)cc1)N1CCCC(c2ccc(Cl)c(Cl)c2)=N1 [Compound 12, 3-(3,4-dichlorophenyl)-1-(4-chlorobenzenesulphonyl)-1,4,5,6-tetrahydropyridazine] | 1 | M | C | 153 | 118 | 115 | 114 | 131 | 135 |  |
| O=S(=O)(c1ccc(Br)cc1)N1CCCC(c2ccc(Cl)c(Cl)c2)=N1 [Compound 39, 3-(3,4-dichlorophenyl)-1-(4-bromobenzenesulphonyl)-1,4,5,6-tetrahydropyridazine] | 0.7 | M | C | 100 | 92 | 94 | 84 | 115 | 99 |  |
| O=S(=O)(c1ccc(I)cc1)N1CCCC(c2ccc(Cl)c(Cl)c2)=N1 [Compound 40, 3-(3,4-dichlorophenyl)-1-(4-iodobenzenesulphonyl)-1,4,5,6-tetrahydropyridazine] | 1.18 | M | C | 26 | 78 | 90 | 71 | 58 | 53 |  |
| Cc1ccc(S(=O)(=O)N2CCCC(c3ccc(Cl)c(Cl)c3)=N2)cc1 [Compound 41, 3-(3,4-dichlorophenyl)-1-(4-methylbenzenesulphonyl)-1,4,5,6-tetrahydropyridazine] | 1.96 | M |  | 4000 | 138 | 158 | 166 | 144 | 116 |  |
| O=S(=O)(c1ccc2ccccc2c1)N1CCCC(c2ccc(Cl)c(Cl)c2)=N1 [Compound 42, 3-(3,4-dichlorophenyl)-1-(2-naphthylenesulfonyl)-1,4,5,6-tetrahydropyridazine] | 0.97 | M |  | 321 | 135 | 144 | 155 | 146 | 166 |  |
| O=S(=O)(c1ccc(Cl)cc1)N1CCCC(c2ccc(Cl)c(C(F)(F)F)c2)=N1 [Compound 77] | 1.47 | M | C | 286 |  |  |  |  |  |  |
| O=S(=O)(c1ccc2c(c1)CCCC2)N1CCCC(c2ccc(Cl)c(C(F)(F)F)c2)=N1 [Compound 78] | 2.44 | M | C | 10000 |  |  |  |  |  |  |
| O=C(c1ccc(Cl)c(Cl)c1)N1CCCC(c2ccccc2)=N1 [Compound 185, 1-(3,4-dichlorobenzoyl)-3-phenyl-1,4,5,6-tetrahydropyridazine] | 3560 |  |  | 10000 | 98 | 136 | 147 | 131 | 128 | significant increase in bone mineral content |
| O=C(c1ccc(Cl)c(Cl)c1)N1CCCC(c2cccs2)=N1 [Compound 280, 3-(2-Thienyl)-1-(3,4-dichlorobenzoyl)-1,4,5,6-tetrahydropyridazine] |  |  |  |  |  |  |  |  |  | significant increase in bone mineral content |
